Experimental data: article PMC9944328 (Nature Communications, 2023)
“And” between values parts separate entries of the source, which are not always exact repeats. Identical values can stand only once.

Molecular target: SSTR2 (Homo sapiens, UniProt P30874)
Test: SSTRs Gi-mediated cAMP inhibition, GloSensor, HEK293, 5 μM forskolin, 15 min room temperature (SSTR2 wild-type);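 as to Bottom (best-fit value): normalized to the maximal wild-type response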;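 as to Bottom (best-fit): normalized to the maximal wild-type response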;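 as to Span (best-fit value): normalized to the maximal wild-type response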;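 as to Span (best-fit): normalized to the maximal wild-type response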;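 as to Top (best-fit value): normalized to the maximal wild-type response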;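 as to Top (best-fit): normalized to the maximal wild-type response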
Format: cell-based
Parameters: Best-fit Top, cAMP inhibition / Span, cAMP inhibition / Best-fit Bottom / Best-fit Top / Best-fit Span / Bottom / Span (best-fit value), cAMP inhibition / Top (best-fit value), cAMP inhibition: scale not given here
Settings: for Best-fit Top, cAMP inhibition / Span, cAMP inhibition: octreotide
Description: The levels of the intracellular 3′, 5′-cyclic AMP (cAMP) were measured by the GloSensor cAMP assay (Promega) as described in the previous studies[28],[41] which has been widely used. The human full-length SSTRs and mutants were cloned into the pcDNA3.1+ vector with a HA signal sequence followed by a Flag tag at the N-terminus. HEK293 cells (ATCC, CRL-1573) were seeded into 6-well microplates at a density of 1.0 × 10^6 cells/well and cultured for 24 h at 37 °C with 5% CO2. Cells were then co-transfected with SSTR wild-type or mutants and GloSensor plasmids. After 24 h of transfection, the cells were dissociated with TrypLE™ Express Enzyme (1X) (Thermo Fisher Scientific) and collected by centrifugation at 500 × g for 5 min. Then the collected cells were suspended in Hank’s balanced salt solution [HBSS (Thermo Fisher Scientific)] supplemented with […] (YEASEN), and then the suspension cells were seeded into 96-well plates with 90 μl/well. After incubating at room temperature for 40 min, 5 μM forskolin and ligands diluted in HBSS were added to each well and the plates were incubated at room temperature for 15 min. […] were measured using the Synergy H1 microplate reader (BioTek) and the data presented are means of at least three independent experiments.

[1] = cAMP inhibition, SSTR2 WT-1 (run 1)
[2] = cAMP inhibition, SSTR2 WT-2 (run 2)
[3] = cAMP inhibition, SSTR2 WT-3 (run 3)
[4] = SSTR2 WT-1, run 1 (WT of each mutant's set)
[5] = SSTR2 WT-2, run 2 (WT of each mutant's set)
[6] = SSTR2 WT-3, run 3 (WT of each mutant's set)

Chain of SSTR2 (P30874 whole entry): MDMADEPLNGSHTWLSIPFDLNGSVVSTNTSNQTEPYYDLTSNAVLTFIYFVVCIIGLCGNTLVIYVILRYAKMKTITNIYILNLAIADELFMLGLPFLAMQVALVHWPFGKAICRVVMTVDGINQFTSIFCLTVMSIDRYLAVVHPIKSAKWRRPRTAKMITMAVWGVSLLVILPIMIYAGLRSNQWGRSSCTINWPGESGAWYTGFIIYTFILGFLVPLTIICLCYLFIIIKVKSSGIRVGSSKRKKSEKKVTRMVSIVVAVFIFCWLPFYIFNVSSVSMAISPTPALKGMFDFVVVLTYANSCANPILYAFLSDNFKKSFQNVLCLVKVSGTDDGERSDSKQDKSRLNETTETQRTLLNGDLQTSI

## C[C@@H](O)[C@@H]1NC(=O)[C@H](CCCCN)NC(=O)[C@@H](Cc2c[nH]c3ccccc23)NC(=O)[C@H](Cc2ccccc2)NC(=O)[C@@H](NC(=O)[C@H](N)Cc2ccccc2)CSSC[C@@H](C(=O)N[C@H](CO)[C@@H](C)O)NC1=O [octreotide]
HEK293, Gi signaling, SSTR2 WT, n=6, read-out: Emax
  Emax: 100%
SSTR2, Fig. 1
  Activation potency level: nanomolar level
WT-1, run 1, batch of I284A
  Bottom (best-fit value): 6.42
  Span (best-fit value): 102.3
  Top (best-fit value): 108.8
WT-1, run 1, batch of P286A
  Bottom (best-fit value): 0.4925
  Span (best-fit value): 108.4
  Top (best-fit value): 108.9
WT-1, run 1, batch of S285A
  Bottom (best-fit value): -1.909
  Span (best-fit value): 108.3
  Top (best-fit value): 106.4
WT-1, run 1, batch of T194A
  Bottom (best-fit value): 5.269
WT-1, run 1, batch of T287A
  Bottom (best-fit value): 5.269
  Span (best-fit value): 95.18
  Top (best-fit value): 100.5
WT-1, run 1, batch of W188A
  LogEC50 (best-fit value): -10.06
  Span (best-fit value): 114.6
  Top (best-fit value): 120.5
WT-1 of D295A set
  Best-fit Bottom: -0.7512
  Best-fit Span: 96.76
  Best-fit Top: 96
WT-1 of F208A set
  Span (best-fit): 95.18
WT-1 of F265A set
  Bottom (best-fit): 9.705
  Top (best-fit): 105
WT-1 of F272A set
  Bottom (best-fit): 5.108
  Span (best-fit): 89.16
  Top (best-fit): 94.27
WT-1 of F294A set
  Best-fit Bottom: 5.269
  Best-fit Span: 95.18
  Best-fit Top: 100.5
WT-1 of K291A set
  Best-fit Bottom: 7.96
  Best-fit Span: 79.36
  Best-fit Top: 87.32
WT-1 of L290A set
  Best-fit Bottom: -1.909
  Best-fit Span: 108.3
  Best-fit Top: 106.4
WT-1 of N276A set
  Bottom (best-fit): 7.96
  Span (best-fit): 79.36
  Top (best-fit): 87.32
WT-1 of P220A set
  Bottom (best-fit): 21.28
  Span (best-fit): 73.55
  Top (best-fit): 94.83
WT-1 of S279A set
  Best-fit Bottom: 5.108
  Best-fit Span: 89.16
  Best-fit Top: 94.27
WT-1 of W269A set
  Bottom (best-fit): 6.42
  Span (best-fit): 102.3
  Top (best-fit): 108.8
WT-1 of Y302A set
  Best-fit Bottom: 6.42
  Best-fit Span: 102.3
  Best-fit Top: 108.8
WT-2, run 2, batch of I284A
  Bottom (best-fit value): -0.5171
  Span (best-fit value): 111.1
  Top (best-fit value): 110.6
WT-2, run 2, batch of P286A
  Bottom (best-fit value): 4.88
  LogEC50 (best-fit value): -10.01
  Span (best-fit value): 102.3
  Top (best-fit value): 107.2
WT-2, run 2, batch of S285A
  Bottom (best-fit value): 5.269
  Span (best-fit value): 95.18
  Top (best-fit value): 100.5
WT-2, run 2, batch of T194A
  Bottom (best-fit value): 2.714
WT-2, run 2, batch of T287A
  Bottom (best-fit value): -7.526
  Span (best-fit value): 120.1
  Top (best-fit value): 112.6
WT-2, run 2, batch of W188A
  Bottom (best-fit value): 4.88
  LogEC50 (best-fit value): -10.01
  Span (best-fit value): 102.3
  Top (best-fit value): 107.2
WT-2 of D295A set
  Best-fit Bottom: -0.7512
  Best-fit Span: 96.76
  Best-fit Top: 96
WT-2 of F208A set
  Span (best-fit): 79.83
WT-2 of F265A set
  Bottom (best-fit): 21.28
  Span (best-fit): 73.55
  Top (best-fit): 94.83
WT-2 of F272A set
  Bottom (best-fit): 5.269
  Span (best-fit): 95.18
  Top (best-fit): 100.5
WT-2 of F294A set
  Best-fit Bottom: 2.714
  Best-fit Span: 101.1
  Best-fit Top: 103.8
WT-2 of K291A set
  Best-fit Bottom: 0.9124
  Best-fit Span: 101.5
  Best-fit Top: 102.4
WT-2 of L290A set
  Best-fit Bottom: 5.269
  Best-fit Span: 95.18
  Best-fit Top: 100.5
WT-2 of N276A set
  Bottom (best-fit): 2.714
  Span (best-fit): 101.1
  Top (best-fit): 103.8
WT-2 of P220A set
  Bottom (best-fit): 2.714
  Span (best-fit): 101.1
  Top (best-fit): 103.8
WT-2 of S279A set
  Best-fit Bottom: -6.301
  Best-fit Span: 114.5
  Best-fit Top: 108.2
WT-2 of W269A set
  Bottom (best-fit): -0.5171
  Span (best-fit): 111.1
  Top (best-fit): 110.6
WT-2 of Y302A set
  Best-fit Bottom: -0.5171
  Best-fit Span: 111.1
  Best-fit Top: 110.6
WT-3, run 3, batch of I284A
  Bottom (best-fit value): 5.269
  Span (best-fit value): 95.18
  Top (best-fit value): 100.5
WT-3, run 3, batch of P286A
  Bottom (best-fit value): 0.3403
  Span (best-fit value): 101
  Top (best-fit value): 101.3
WT-3, run 3, batch of S285A
  Bottom (best-fit value): 0.3403
  Span (best-fit value): 101
  Top (best-fit value): 101.3
WT-3, run 3, batch of T194A
  Bottom (best-fit value): 9.705
WT-3, run 3, batch of T287A
  Bottom (best-fit value): 0.3403
  Span (best-fit value): 101
  Top (best-fit value): 101.3
WT-3, run 3, batch of W188A
  Bottom (best-fit value): 0.3403
  Span (best-fit value): 101
  Top (best-fit value): 101.3
WT-3 of D295A set
  Best-fit Bottom: 5.262
  Best-fit Span: 106.6
  Best-fit Top: 111.9
WT-3 of F208A set
  Span (best-fit): 108.3
WT-3 of F265A set
  Bottom (best-fit): 9.705
  Span (best-fit): 95.34
  Top (best-fit): 105
WT-3 of F272A set
  Bottom (best-fit): 21.28
  Span (best-fit): 73.55
  Top (best-fit): 94.83
WT-3 of F294A set
  Best-fit Bottom: -6.301
  Best-fit Span: 114.5
  Best-fit Top: 108.2
WT-3 of K291A set
  Best-fit Bottom: 9.705
  Best-fit Span: 95.34
  Best-fit Top: 105
WT-3 of L290A set
  Best-fit Bottom: 0.5044
  Best-fit Span: 101.8
  Best-fit Top: 102.3
WT-3 of N276A set
  Bottom (best-fit): 9.705
  Span (best-fit): 95.34
  Top (best-fit): 105
WT-3 of P220A set
  Bottom (best-fit): 9.705
  Span (best-fit): 95.34
  Top (best-fit): 105
WT-3 of S279A set
  Best-fit Bottom: 5.269
  Best-fit Span: 95.18
  Best-fit Top: 100.5
WT-3 of W269A set
  Bottom (best-fit): 5.108
  Span (best-fit): 89.16
  Top (best-fit): 94.27
WT-3 of Y302A set
  Best-fit Bottom: 5.269
  Best-fit Span: 95.18
  Best-fit Top: 100.5
[1]
  Span (best-fit value): 89.16 and 95.18 and 102.3 and 73.55 and 108.3
  Top (best-fit value): 94.27 and 100.5 and 105.4 and 94.83 and 106.4
[2]
  Span (best-fit value): 114.5 and 95.18 and 103.8 and 101.1
  Top (best-fit value): 108.2 and 100.5 and 107.6 and 103.8 and 95.77
[3]
  Span (best-fit value): 114.5 and 89.16 and 108 and 95.34 and 149.7
  Top (best-fit value): 108.2 and 94.27 and 109.2 and 105 and 143.2 and 106.4
cAMP inhibition, SSTR2-WT, run 1
  Top (best-fit): 101.1
cAMP inhibition, SSTR2-WT, run 2
  Top (best-fit): 101.1
cAMP inhibition, SSTR2-WT, run 3
  Top (best-fit): 96.66
cAMP inhibition, SSTR2-WT, run 4
  Top (best-fit): 105.3
[4]
  Best-fit Top, cAMP inhibition: 94.27 and 103.3 and 100.5 and 96 and 105 and 108.2
  Span, cAMP inhibition: 89.16 and 99.34 and 96.76 and 114.5
[5]
  Best-fit Top, cAMP inhibition: 103.8 and 107.6 and 101.1 and 105.4 and 106.4
  Span, cAMP inhibition: 101.1 and 103.8 and 99.15 and 102.3 and 108.3
[6]
  Best-fit Top, cAMP inhibition: 103.8 and 101.3 and 105 and 107.6 and 103.3
  Span, cAMP inhibition: 101.1 and 101 and 103.8 and 99.34
